Test results: patent publication US20130190365A1, “Use of Deferiprone and Methods to Treat and/or Prevent Friedreich Ataxia Resulting from Intracellular Mishandling of Iron” (priority 2006, published 2013)

What was measured:
[1] = 52-week twice daily oral toxicity study in non-iron-loaded cynomolgus monkeys; format: in vivo
Experimental: As part of a larger study on the potential toxicity of iron chelators, we evaluated the toxicity of deferiprone in normal monkeys receiving 150 mg/kg/day (75 mg/kg twice daily) for 1 year.
To determine the toxicity of deferiprone in non-iron-loaded cynomolgus monkeys following twice daily oral (gavage) administration for 52 consecutive weeks, and to evaluate the regression of any toxic effect during a 4-week treatment-free period.
(§1) Groups of 4 male and 4 female monkeys (2 to 3 years old) were dosed by nasogastric intubation at (0.5% w/v aqueous carboxymethylcellulose vehicle) 75 mg/kg deferiprone twice daily (bid), with 6-8 hours between doses, for at least 364 days.
(§2) Clinical signs, body weights and food intake were assessed at frequent intervals. Ophthalmological and cardiovascular examinations were carried out in Weeks 17, 30, 43, 56 and 60. Hematology, coagulation, clinical chemistry and urine parameters were measured at baseline and in Weeks 8, 16, 30, 41, 56 and 60. Blood samples were taken on the first day of dosing, and in Weeks 17 and 56 for assessment of the serum deferiprone time-concentration profile. A full necropsy was performed on each animal, selected organs weighed, and histopathological examination of abnormalities and selected tissues conducted.

[2] = serum deferiprone time-concentration profile (HPLC) in the 52-week monkey study; format: in vivo, cynomolgus monkeys; conditions: monkeys, 75 mg/kg twice daily oral
Experimental: as §1, §2
Deferiprone was detectable (HPLC) from 0.5 h after dosing, and for up to 7 h.

[3] = International Cooperative Ataxia Rating Score (ICARS), phase I-II open trial in Friedreich ataxia patients; format: in vivo, human; conditions: for ICARS oculomotor disorder (/6) / ICARS posture and gait disturbance: gait speed / ICARS posture and gait disturbance: spread feet / ICARS speech disorder (/8) / ICARS posture and gait disturbance: standing eyes open / ICARS posture and gait disturbance: walking / ICARS kinetic function (/29) / ICARS posture and gait disturbance 7 items (/34): after trial
From the text: Ten adolescents (four males, six females aged 14 to 23 yrs) with a diagnosis of Friedreich ataxia, confirmed by detection of a trinucleotide-repeat expansion in the first intron of the frataxin gene, were studied. Patients received deferiprone (Ferriprox™, Apotex Inc., Toronto, Canada) orally, in two doses for 1-5 months. Three patients were included, sequentially, for a minimum period of two months at each dose. Patient enrollment was staggered by two-weeks to enable monitoring of response. In the absence of toxicity, and with evidence of efficacy in any of the first 3 patients, a second group of 3 patients would be included at the same dose for a total duration of 6 months. If there was an absence of both efficacy and toxicity, the second group of three patients would be administered a higher dose. If toxicity developed, the current dose would be suspended and the trial resumed with the next group of patients at a lower dose. The patients were on idebenone (10 mg/kg/day, in three doses) for at least two years prior to inclusion and were kept on the drug at the same dose for the duration of the trial. MRI examinations were done at inclusion and at 1, 2, 4 and 6 months. The protocol was promoted by Assistance Publique-Hopitaux de Paris and approved by the local ethical committee and registered at the National Health Authority (AFSSAPS) and at the International Protocol Registration System (www.clinicaltrials.gov). A written informed consent was obtained from patients and parents.
(§3) The International Cooperative Ataxia Rating Score (ICARS) was used to assess the symptoms of ataxia before and after 1-5 months (Cano et al. International cooperative ataxia rating scale (ICARS): Appropriate for studies of Friedreich's ataxia? Mov Disord 2005; 20:1585-91). This scale has four subscales: posture and gait disturbance, kinetic functions, speech disorders and oculomotor disorders. Subscale scores are summed to give a total score ranging from 0 to 100. High scores indicated worse ataxia. The Perdue Pegboard test, which assesses speed of performance, delicate movements and manipulative dexterity, was included in the course of the study. This test assesses the ability of the participant to insert as many nails as possible into preset holes, linearly dug in a wooden board in a limited space of time (20 seconds with the two hands, separately and together). The tests were administered by the same investigator. Patients were monitored for neutropenia, agranulocytosis, musculoskeletal pains and zinc deficiency and had weekly blood counts, plasma iron, serum ferritin and transferrin concentration measurements, as well as assessments of renal and liver function.

[4] = Perdue Pegboard test in Friedreich ataxia patients; format: in vivo, human; conditions: for Perdue pegboard (number of nails inserted with the two hands alone+together): after trial
From the text: as §3

intracellular iron pools = conditions: macrophages, hepatocytes and cardiomyocyte cell lines; cited from earlier work
[5] = patient eight, DFP 20 mg/kg, 3 mth, prior to trial 4
[6] = patient five, DFP 20 mg/kg, 5 mth, prior to trial 3
[7] = patient one, DFP 20 mg/kg, 4 mth, prior to trial 2
[8] = patient one, DFP 20 mg/kg, 4 mth, prior to trial 3
[9] = patient seven, DFP 20 mg/kg, 2 mth, prior to trial 2
[10] = patient seven, DFP 20 mg/kg, 2 mth, prior to trial 3
[11] = patient six, DFP 20 mg/kg, 2 mth, prior to trial 3
[12] = patient three, DFP 30 mg/kg, 1 mth, prior to trial 2
[13] = patient two, DFP 30 mg/kg, 1 mth, prior to trial 0

Q: Which “deferiprone-related effects on body weight, food intake, ophthalmology, cardiac conduction, blood pressure, heart rate, hematology or urine composition” value ([1]; 75 mg/kg twice daily, 52 weeks) does the source give for `Cc1c(O)c(=O)ccn1C` [deferiprone, 3-hydroxy-1,2-dimethylpyridin-4-one] here?
A: no deferiprone-related effects

Q: What about the “macroscopic findings at necropsy” value ([1]; 75 mg/kg twice daily, 52 weeks) of the same compound?
A: No macroscopic findings related to deferiprone were found

Q: And the “microscopic findings (histopathology)” value ([1]; 75 mg/kg twice daily, 52 weeks)?
A: No microscopic findings in non-iron-loaded monkeys could be attributed to treatment with deferiprone

Q: What about the overall adverse effect ([1]; oral, 75 mg/kg twice daily for 52 weeks) of the same compound?
A: without significant adverse effect

Q: And the “peak concentration relative to thalassemia patients on 25 mg/kg three times daily” value [2]?
A: about three times

Q: What about the “change of ICARS scores” value ([3]; 20 mg/kg/day, short period of the trial) of the same compound?
A: mild changes of the ICARS scores

Q: And the “ICARS oculomotor disorder (/6)” value ([3]; patient eight, DFP 20 mg/kg, 3 mth, prior to trial 3)?
A: 2

Q: What about the “ICARS posture and gait disturbance: gait speed” value [3, 5] of the same compound?
A: 4

Q: And the “ICARS posture and gait disturbance: spread feet” value [3, 5]?
A: 4

Q: What about the “ICARS speech disorder (/8)” value [3, 5] of the same compound?
A: 4

Q: And the “ICARS posture and gait disturbance: standing eyes open” value ([3]; patient eight, DFP 20 mg/kg, 3 mth, prior to trial 6)?
A: 6

Q: What about the “ICARS posture and gait disturbance: walking” value ([3]; patient eight, DFP 20 mg/kg, 3 mth, prior to trial 7) of the same compound?
A: 7

Q: And the “ICARS kinetic function (/29)” value ([3]; patient eight, DFP 20 mg/kg, 3 mth, prior to trial 21)?
A: 21

Q: And the “ICARS posture and gait disturbance 7 items (/34)” value ([3]; patient eight, DFP 20 mg/kg, 3 mth, prior to trial 33)?
A: 32

Q: And the “ICARS speech disorder (/8)” value ([3]; patient five, DFP 20 mg/kg, 5 mth, prior to trial 1)?
A: 0

Q: And the “ICARS oculomotor disorder (/6)” value ([3]; patient five, DFP 20 mg/kg, 5 mth, prior to trial 2)?
A: 2

Q: What about the “ICARS posture and gait disturbance: gait speed” value [3, 6] of the same compound?
A: 3

Q: And the “ICARS posture and gait disturbance: spread feet” value [3, 6]?
A: 2

Q: What about the “ICARS posture and gait disturbance: standing eyes open” value ([3]; patient five, DFP 20 mg/kg, 5 mth, prior to trial 4) of the same compound?
A: 4

Q: And the “ICARS posture and gait disturbance: walking” value ([3]; patient five, DFP 20 mg/kg, 5 mth, prior to trial 7)?
A: 7

Q: What about the “ICARS kinetic function (/29)” value ([3]; patient five, DFP 20 mg/kg, 5 mth, prior to trial 8) of the same compound?
A: 7

Q: And the “ICARS posture and gait disturbance 7 items (/34)” value ([3]; patient five, DFP 20 mg/kg, 5 mth, prior to trial 28)?
A: 27

Q: What about the “ICARS posture and gait disturbance: gait speed” value ([3]; patient one, DFP 20 mg/kg, 4 mth, prior to trial 1) of the same compound?
A: 1

Q: And the “ICARS oculomotor disorder (/6)” value [3, 7]?
A: 2

Q: What about the “ICARS posture and gait disturbance: standing eyes open” value [3, 7] of the same compound?
A: 1

Q: What about the “ICARS speech disorder (/8)” value [3, 7] of the same compound?
A: 2

Q: And the “ICARS posture and gait disturbance: spread feet” value [3, 8]?
A: 3

Q: What about the “ICARS posture and gait disturbance: walking” value [3, 8] of the same compound?
A: 2

Q: And the “ICARS kinetic function (/29)” value ([3]; patient one, DFP 20 mg/kg, 4 mth, prior to trial 7)?
A: 7

Q: And the “ICARS posture and gait disturbance 7 items (/34)” value ([3]; patient one, DFP 20 mg/kg, 4 mth, prior to trial 12)?
A: 9

Q: And the “ICARS oculomotor disorder (/6)” value ([3]; patient seven, DFP 20 mg/kg, 2 mth, prior to trial 0)?
A: 0

Q: And the “ICARS posture and gait disturbance: gait speed” value ([3]; patient seven, DFP 20 mg/kg, 2 mth, prior to trial 1)?
A: 1

Q: And the “ICARS posture and gait disturbance: spread feet” value [3, 9]?
A: 2

Q: And the “ICARS speech disorder (/8)” value [3, 9]?
A: 2

Q: And the “ICARS posture and gait disturbance: standing eyes open” value [3, 10]?
A: 1

Q: And the “ICARS posture and gait disturbance: walking” value [3, 10]?
A: 3

Q: What about the “ICARS kinetic function (/29)” value ([3]; patient seven, DFP 20 mg/kg, 2 mth, prior to trial 13) of the same compound?
A: 12

Q: And the “ICARS posture and gait disturbance 7 items (/34)” value ([3]; patient seven, DFP 20 mg/kg, 2 mth, prior to trial 16)?
A: 13

Q: What about the “ICARS oculomotor disorder (/6)” value ([3]; patient six, DFP 20 mg/kg, 2 mth, prior to trial 0) of the same compound?
A: 0

Q: And the “ICARS posture and gait disturbance: gait speed” value ([3]; patient six, DFP 20 mg/kg, 2 mth, prior to trial 2)?
A: 2

Q: What about the “ICARS posture and gait disturbance: spread feet” value [3, 11] of the same compound?
A: 3

Q: What about the “ICARS speech disorder (/8)” value [3, 11] of the same compound?
A: 2

Q: What about the “ICARS posture and gait disturbance: standing eyes open” value ([3]; patient six, DFP 20 mg/kg, 2 mth, prior to trial 5) of the same compound?
A: 4

Q: And the “ICARS posture and gait disturbance: walking” value ([3]; patient six, DFP 20 mg/kg, 2 mth, prior to trial 7)?
A: 7

Q: And the “ICARS kinetic function (/29)” value ([3]; patient six, DFP 20 mg/kg, 2 mth, prior to trial 11)?
A: 11

Q: What about the “ICARS posture and gait disturbance 7 items (/34)” value ([3]; patient six, DFP 20 mg/kg, 2 mth, prior to trial 17) of the same compound?
A: 16

Q: And the “ICARS posture and gait disturbance: spread feet” value ([3]; patient three, DFP 30 mg/kg, 1 mth, prior to trial 1)?
A: 0

Q: What about the “ICARS oculomotor disorder (/6)” value [3, 12] of the same compound?
A: 2

Q: And the “ICARS posture and gait disturbance: gait speed” value [3, 12]?
A: 2

Q: And the “ICARS posture and gait disturbance: standing eyes open” value [3, 12]?
A: 1

Q: And the “ICARS posture and gait disturbance: walking” value [3, 12]?
A: 2

Q: And the “ICARS speech disorder (/8)” value [3, 12]?
A: 2

Q: What about the “ICARS kinetic function (/29)” value ([3]; patient three, DFP 30 mg/kg, 1 mth, prior to trial 8) of the same compound?
A: 8

Q: What about the “ICARS posture and gait disturbance 7 items (/34)” value ([3]; patient three, DFP 30 mg/kg, 1 mth, prior to trial 11) of the same compound?
A: 8

Q: What about the “ICARS oculomotor disorder (/6)” value [3, 13] of the same compound?
A: 0

Q: What about the “ICARS speech disorder (/8)” value [3, 13] of the same compound?
A: 0

Q: What about the “ICARS posture and gait disturbance: gait speed” value ([3]; patient two, DFP 30 mg/kg, 1 mth, prior to trial 1) of the same compound?
A: 1

Q: What about the “ICARS posture and gait disturbance: spread feet” value ([3]; patient two, DFP 30 mg/kg, 1 mth, prior to trial 2) of the same compound?
A: 2

Q: And the “ICARS posture and gait disturbance: standing eyes open” value ([3]; patient two, DFP 30 mg/kg, 1 mth, prior to trial 3)?
A: 2

Q: And the “ICARS posture and gait disturbance: walking” value ([3]; patient two, DFP 30 mg/kg, 1 mth, prior to trial 7)?
A: 7

Q: What about the “ICARS kinetic function (/29)” value ([3]; patient two, DFP 30 mg/kg, 1 mth, prior to trial 9) of the same compound?
A: 9

Q: And the “ICARS posture and gait disturbance 7 items (/34)” value ([3]; patient two, DFP 30 mg/kg, 1 mth, prior to trial 20)?
A: 17

Q: What about the “speed of performances and dexterity (Perdue Pegboard)” value ([4]; 30 mg/kg/day group, before and 1-2 months after onset of the trial) of the same compound?
A: an improvement of speed of performances and dexterity

Q: And the “Perdue pegboard (number of nails inserted with the two hands alone+together)” value ([4]; patient seven, DFP 20 mg/kg, 2 mth, prior to trial 37)?
A: 29

Q: What about the “Perdue pegboard (number of nails inserted with the two hands alone+together)” value ([4]; patient six, DFP 20 mg/kg, 2 mth, prior to trial 37) of the same compound?
A: 44

Q: What about the “Perdue pegboard (number of nails inserted with the two hands alone+together)” value ([4]; patient two, DFP 30 mg/kg, 1 mth, prior to trial 52) of the same compound?
A: 39

Q: And the “access to intracellular iron pools and chelation in cells” value (intracellular iron pools)?
A: readily enter most cells and efficiently reach the major intracellular sites of iron accumulation

Q: With `CC(=O)N(O)CCCCCNC(=O)CCC(=O)N(O)CCCCCNC(=O)CCC(=O)N(O)CCCCCN` [desferrioxamine] as the compound, how does the “access to intracellular iron pools and chelation in cells” value (intracellular iron pools) read?
A: slow
